Data on one compound can be found in paper PMC7503308, “A Novel Urease Inhibitor of Ruminal Microbiota Screened through Molecular Docking” (International Journal of Molecular Sciences, 2020).

Entries after “also recorded” stand apart in the source; their conditions may differ.

The data set has as its system Caco-2 cells. Kind of data set: CCK8 colorimetric cytotoxicity assay. It is filed as cell-based. The settings on record: concentration below 100 μM, 24 h, p > 0.05. How it is done:
A standard CCK8 colorimetric assay was employed for the evaluation of cytotoxic activity of compound 6238-0047 using 96-well flat bottomed microplates. Dulbecco’s Modified Eagle Medium (GIBCO) with 10% FBS (fetal bovine serum, FBS, Gibco) and 1% NEAA was used for the culturing of Caco-2 cells (ATCC, Manassas, VA, USA), and the medium was supplemented with 100 μg/mL of streptomycin and 100 IU/mL of penicillin. The medium was kept in 5% CO2 and incubated at 37 °C. The exponentially grown cells were harvested, counted using a hemocytometer and diluted with the medium. The cell culture was diluted to a density of 1 × 10^5 cells/mL and transferred into a 96-well plate with 135 μL or […]. The medium was incubated for 24 h for cell attachment. Following this, 15 μL of compounds with different final concentrations of 1, 10, 25, 50, and 100 μM in the experimental group and fresh medium as a control group, were added to a plate with five replicates for each. After 24 h of incubation at 37 °C and kept in 5% CO2, 15 μL of CCK8 was added to each well and after 2 h the absorbance was measured at 450 nm using a microplate reader. The formula for calculating the relative cell viability was as follows:Relative cell viability (%) = absorbance of experimental group/absorbance of control group × 100%

`COc1ccc(-c2ccc(CCC(=O)O)n2NC(N)=O)cc1` [6238-0047, 3-[1-[(aminocarbonyl)amino]-5-(4-methoxyphenyl)-1H-pyrrol-2-yl] propanoic acid]: the “Relative cell viability of Caco-2 cell culture” value is on record as “no significant adverse effect; also recorded: no significant influence; also recorded: no cytotoxic effect”.
